Measurements from patent publication US20220062240A1, “METHODS OF TREATING CANCER USING A CLK INHIBITOR” (BioSplice Therapeutics, Inc., priority 2018, published 2022).
Read-outs that look alike come from different tables or passages of the source.

Columns and labels:
[1] = tested on: Wnt responsive TOPflash reporter in SW480 colon cancer cells; experiment: TOPflash β-catenin/TCF-responsive reporter assay; assay type: cell-based, human
Method: Human colorectal cancer cell line SW480, stably expressing the Wnt responsive TOPflash promoter linked to luciferase gene (TOPflash) was used along with SW480 stably expressing a control EF1a-Luciferase reporter gene (GenTarget #LVP434) as a counterscreen. […] Cells were plated at ˜10,000 cells/well and incubated for 40 hours. Luminescence was detected using Bright-Glo (Promega Corp.).

[2] = tested on: SRSF6 and SRSF5 phosphorylation in SW480 cells; experiment: SR phosphorylation immunoblot; assay type: cell-based, human; conditions: SW480, 1 hour
Method: FIG. 6A is an immunoblot showing phosphorylated SRSF6 and SRSF5 in SW480 cells treated as indicated for 1 hour. Total SRSF5 and R-actin blots were used as loading controls. The blots are representative of two experiments.
First, it was determined that CLK1, CLK2, and CLK3 localized into the nucleus, while CLK4 was predominantly detected in the cytoplasm (FIG. 5). […]. Zhou et al., Chromosoma 122, 191-207, 2013).
(§1) For indicated experiments, cells were pelleted by centrifugation and washed with PBS and protein from the cell pellet was fractionated into cytoplasmic and nuclear fractions using a NE-PER™Nuclear and Cytoplasmic Extraction Reagents kit containing Halt™ protease and phosphatase inhibitors (Thermo Fisher). Protein concentrations of the samples were quantified using the Pierce Micro BCA protein assay kit (Thermo Fisher). […] Primary antibodies were incubated overnight at 4° C., with GAPDH, Lamin B1 or β-actin being used as loading controls (refer to Table 19 for primary antibodies and dilutions used).

[3] = tested on: nuclear speckles in SW480 cells; experiment: Nuclear speckle staining (phospho-SC35); assay type: cell-based, human; conditions: SW480, 6 hours, 0.3-10 μM
Method: […]. The cells were stained with a phospho-SC35 antibody (green) and a Hoechst 33342 nuclear stain (blue). Scale bar, 10 μm.
FIG. 9A is a set of representative immunofluorescence images (×100 magnification) of SW480 cells treated with indicated concentrations for 6 hours. The cells were stained with a phospho-SC35 antibody (green) and a Hoechst 33342 nuclear stain (blue). Scale bar, 10 μm.
[…]. After approximately 6 hr, cells were fixed and stained a phospho-SC35 antibody (Santa Cruz Biotechnology). Cells were then labelled with an Alexa-Fluor 488 secondary antibody (Thermo Fisher) containing DAPI (Thermo Fisher). Cells were imaged at 100× magnification.

SW480 cells [4] = experiment: Wnt pathway gene (qRT-PCR) and protein (immunoblot) expression; assay type: cell-based, human; conditions: SW480, 24 hours, compared to DMSO
Method: Fold-change relative to DMSO is shown (n=3 biological replicates per group, Mean±SD, **P<0.01; ***P<0.001, student's two-tailed t-test).
(§2) FIG. 6D is an immunoblot showing Wnt pathway-related protein expression in SW480 cells treated as indicated for 24 hours. The proteins were separated into nuclear and cytoplasmic fractions. GAPDH and Lamin B1 represent cytoplasmic and nuclear protein loading controls, respectively. The blots are representative of two experiments.
as §2, with “6E” for “6D”, “48” for “24”
The fold-change relative to DMSO is shown (n=3 biological replicates per group, Mean±SD, *P<0.05; **P<0.01; ***P<0.001, student's two-tailed t-test).
FIG. 7C is an immunoblot showing protein expression of hits identified in FIG. 7A. SW480 cells were treated as indicated for 24 hours and proteins were separated into nuclear and cytoplasmic fractions. GAPDH and Lamin B1 represent the cytoplasmic and nuclear protein loading controls, respectively. The blots are representative of two experiments.
as §1
Total RNA was isolated using RNeasy Plus mini kit (Qiagen) or MagMAX Total RNA kit (Thermo Fisher) as per the manufacturers' protocol. cDNA was synthesized using the iScript cDNA Synthesis Kit (Bio-Rad), followed before performing qRT-PCR. Reactions were then run on a real-time PCR system (CFX384; Bio-Rad). Relative gene expression was determined by normalizing to GAPDH using the ΔΔCt method.

SW480 cells [5] = experiment: Cell viability assay in SW480 cells (Compound 12, CC-671, Harmine); assay type: cell-based; conditions: Homo sapiens, SW480, 96 h, read-out: EC50 cell viability
From the text: The data is representative from three independent assays performed in quadruplicate.

EC50 [1] [µM] | Compound | SR phosphorylation (SRSF6, SRSF5) [2] | enlargement of nuclear speckles [3] | gene expression of AXIN2, LEF1, MYC, TCF7, CTNNB1 and TCF7L2 (SW480 cells [4]) | EC50 ([1]; Homo sapiens) [µM] | EC50 (SW480 cells [5]) [µM]
1.06 | C[C@H]1[C@H]2N(C(=O)CN(C)N2C(=O)NCc2ccccc2)[C@@H](Cc2ccc(OP(=O)(O)O)cc2)C(=O)N1Cc1cccc2cccnc12 [PRI-724] |  |  |  |  | 
 | CNC(=O)c1ccc(Nc2nc(OC3CCCC3)c3c(-c4ccc5nc(C)oc5c4)c[nH]c3n2)c(OC)c1 [CC-671, reference compound] | not as effective as Compound 12 | only at higher doses of 10 μM and 3 μM | minimal effect |  | 
 | COc1ccc2c(c1)[nH]c1c(C)nccc12 [Harmine] | not active | not observed | minimal effect | > 10 | > 10
